Data from patent US12226386B2, “Compositions and methods for treating biofilms” (The Regents of the University of California, priority 2018, dated 2025).

How the values were obtained:
[1] = test system: C. albicans biofilms; assay: in vitro biofilm disruption assay, fungal; assay type: cell-based, Candida albicans; settings: 1% amino acid, p<0.001
Description: Two types of biofilm assays were performed: a sustained inhibition assay and a disruption assay.
(§1) For fungal biofilm assays, all solutions were prepared in RPMI 1640 medium. All bacterial biofilm solutions were prepared in Tryptic Soy Broth (TSB), supplemented with 1% glucose (henceforth referred to as TSB-G). All subsequent procedures were performed in a manner that maintained sterility. A solution of each amino acid to be tested was prepared in weight to volume concentrations ranging from 0.1-5.0%. Amino acids were also tested in combinations. Compound solutions were homogenized with gentle agitation in the dark (4° C., 24 hours) before use.
Fungal strains were streaked on Yeast Peptone Dextrose (YPD) agar plates and incubated at 30° C. for 48 hours. A single colony from each strain to be tested was inoculated into YPD broth and grown for 12 hours, at 30° C., shaking at 225 rpm. For the fungal biofilm inhibition assay, 1 μl of saturated overnight cell culture was added to either 80 μL of RPMI-1640 or RPMI-1640 supplemented with the amino acid compound solution to be tested, in a 384-well plate. […] Media was carefully aspirated and the biofilm was measured by optical density at 600 nm. Twelve replicates were performed for each tested condition and the reported values are normalized to the control (RPMI-1640 media only). For the fungal biofilm disruption assays, 80 μL of RPMI-1640 was added to the plate, along with 1 μL of overnight cell culture. […] Loosely bound cells were washed once with PBS and 80 μL of RPMI-1640 was added to the plate. […] Media was carefully aspirated from the mature biofilm and 80 μL of RPMI-1640, or RPMI-1640 supplemented with the amino acid compound solution to be tested, was gently added to the plate. […] Media was carefully aspirated and the biofilm was measured by optical density at 600 nm. Twelve replicates were performed for each tested condition and the reported values are normalized to the control (RPMI-1640 media only).
The cells were allowed to adhere to the plate for 90 minutes at 37° C. with shaking (350 rpm). […] The plate was further incubated for 24 hours at 37° C. with shaking (350 rpm). […] The plate was further incubated for 24 hours at 37° C. with shaking (350 rpm). Media was carefully aspirated and the biofilm was measured by optical density at 600 nm.

[2] = test system: S. aureus (MRSA) biofilms; assay: in vitro biofilm disruption assay, bacterial; assay type: cell-based; settings: Staphylococcus aureus, 24 h, disruption, S. aureus, 1% amino acid, p<0.001, read-out: Promote B Biofilm
Description: In vitro biofilm formation was tested using two assays, sustained inhibition and disruption. Both assays assess biofilm formed on polystyrene plates. The first, tests the effects of amino acid solution on a developing biofilm, while the latter tests the effects of the solution on a pre-formed mature biofilm, both compared to media without supplemented amino acids.
(§2) Other amino acids in the blood of animals could combat bacterial and fungal biofilm and therefore may be useful in treating these bacterial and fungal infections that would lie on the external surfaces of infected animals such as humans and could also be used to combat these pathogens on instruments and surfaces that need to be treated. Two types of biofilm assays were performed: a sustained inhibition assay and a disruption assay. The sustained inhibition assay assessed the compound's ability to prevent biofilm development throughout all stages of biofilm formation, while the disruption assay assessed the compound's ability to break up an existing mature biofilm.
as §1
(§3) Bacterial strains were streaked on Blood Agar plates (5% sheep blood in Tryptic Soy Agar) and incubated at 37° C. for 24 hours. A single colony from each strain to be tested was inoculated in a TSB broth and grown for 12 hours, at 37° C. shaking at 225 rpm. For the bacterial biofilm inhibition assays, 1 μL of saturated overnight cell culture was added to either 80 μL of TSB-G, or TSB-G supplemented with the amino acid compound solution to be tested, in a 384-well plate. The cells were allowed to adhere to the plate for 60 minutes at 37° C. without shaking. The media was carefully aspirated and 80 μL of TSB-G, or TSB-G supplemented with the amino acid compound solution was added to the plate. The plate was further incubated for 24 hours at 37° C. without shaking. Media was carefully aspirated and the biofilm was measured by optical density at 600 nm. Eight or twelve replicates were performed for each tested condition and the reported values are normalized to the control (TSB-G media only). For the bacterial biofilm disruption assays, 80 μL of TSB-G was added to the plate, along with 1 μL of overnight cell culture. The cells were allowed to adhere to the plate for 60 minutes at 37° C. with no shaking. The media was carefully aspirated and 80 μL of TSB-G was added to the plate. The plate was further incubated for 24 hours at 37° C. with no shaking. Media was carefully aspirated from the mature biofilm and 80 μL of TSB-G, or TSB-G supplemented with the amino acid to be tested, was gently added to the plate. The plate was further incubated for 24 hours at 37° C. without shaking. Media was aspirated and the biofilm was measured by optical density at 600 nm. Twelve replicates were performed for each tested condition and the reported values are normalized to the control (TSB-G media only).
For disruption assay, 80 μl of TSB-G was added to the plate, along with 1 μl of overnight cell culture. The cells were allowed to adhere to the plate for 60 minutes at 37° C. with no shaking. The media was carefully aspirated and 80 μl of TSB-G was added to the plate. The plate was further incubated for 24 hours at 37° C. with no shaking. Media was carefully aspirated from the mature biofilm and 80 μl of TSB-G, or TSB-G supplemented with the amino acid to be tested, was added drop wise to the plate. The plate was further incubated for 24 hours at 37° C. with no shaking. […]

[3] = test system: bacterial biofilms (MRSA); assay: biofilm assays (sustained inhibition and/or disruption), bacterial; assay type: cell-based, Staphylococcus aureus; settings: in at least one of the two biofilm assays
Description: as §2, §1, §3

[4] = test system: fungal biofilms (C. albicans); assay: biofilm assays (sustained inhibition and/or disruption), fungal; assay type: cell-based, Candida albicans; settings: administered individually; in at least one of the two biofilm assays
Description: Other amino acids in the blood of animals could combat bacterial and fungal biofilm and therefore may be useful in treating these bacterial and fungal infections that would lie on the external surfaces of infected animals such as humans and could also be used to combat these pathogens on instruments and surfaces that need to be treated. Two types of biofilm assays were performed: a sustained inhibition assay and a disruption assay. The sustained inhibition assay assessed the compound's ability to prevent biofilm development throughout all stages of biofilm formation, while the disruption assay assessed the compound's ability to break up an existing mature biofilm. For fungal biofilm assays, all solutions were prepared in RPMI 1640 medium. All bacterial biofilm solutions were prepared in Tryptic Soy Broth (TSB), supplemented with 1% glucose (henceforth referred to as TSB-G). All subsequent procedures were performed in a manner that maintained sterility. […] Amino acids were also tested in combinations. Compound solutions were homogenized with gentle agitation in the dark (4° C., 24 hours) before use. Fungal strains were streaked on Yeast Peptone Dextrose (YPD) agar plates and incubated at 30° C. for 48 hours. A single colony from each strain to be tested was inoculated into YPD broth and grown for 12 hours, at 30° C., shaking at 225 rpm. For the fungal biofilm inhibition assay, 1 μl of saturated overnight cell culture was added to either 80 μL of RPMI-1640 or RPMI-1640 supplemented with the amino acid compound solution to be tested, in a 384-well plate. The cells were allowed to adhere to the plate for 90 minutes at 37° C. shaking at 350 rpm. Loosely bound cells were washed once with phosphate buffered saline (PBS) and 80 μl of RPMI-1640, or RPMI-1640 supplemented with the amino acid compound solution was added to the plate. The plate was further incubated for 24 hours at 37° C. shaking at 350 rpm. Media was carefully aspirated and the biofilm was measured by optical density at 600 nm. Twelve replicates were performed for each tested condition and the reported values are normalized to the control (RPMI-1640 media only). For the fungal biofilm disruption assays, 80 μL of RPMI-1640 was added to the plate, along with 1 μL of overnight cell culture. The cells were allowed to adhere to the plate for 90 minutes at 37° C. shaking at 350 rpm. Loosely bound cells were washed once with PBS and 80 μL of RPMI-1640 was added to the plate. The plate was further incubated for 24 hours at 37° C. shaking at 350 rpm. Media was carefully aspirated from the mature biofilm and 80 μL of RPMI-1640, or RPMI-1640 supplemented with the amino acid compound solution to be tested, was gently added to the plate. The plate was further incubated for 24 hours at 37° C. shaking at 350 rpm. Media was carefully aspirated and the biofilm was measured by optical density at 600 nm. Twelve replicates were performed for each tested condition and the reported values are normalized to the control (RPMI-1640 media only).

O=C(O)[C@@H]1CCCN1 [Proline, L-proline]
Reduce F Biofilm [1]: ● (a single dot [i.e. ●] signifies minor effect (from about 10 to about 30% change)) | activation at 1 % [2]: 10 to 30% | effect on bacterial biofilm growth [3]: support (improve) bacterial biofilm growth | anti-biofilm properties against fungal biofilms [4]: reduction by less than two-fold
